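Exposure lasted 48 hours, with cells grown in 96-well plates and compounds tested at five concentrations. Abbreviation: GI50, concentration required for 50% inhibition of growth. TGI is the concentration that stops growth completely.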

Among the test systems are HCC-2998 colon; SF-295 CNS; KM12 colon; SR leukemia; A498 renal; HOP-62 NSCLC; HOP-92 NSCLC; SK-MEL-2 melanoma; PC-3 prostate; MDA-MB-231 breast.
Common to all, as to experiment: DTP human tumour cell line panel, 48 h

On to `CN1CC(C(=O)C2C(=O)c3ccccc3C2=O)C(=O)C(=O)C(C(=O)C2C(=O)c3ccccc3C2=O)C1` (stereo not drawn), for which the TGI in the experiment with HCC-2998 colon was more than 100 µM; in the experiment on SF-295 CNS, more than 100 µM; with KM12 colon, more than 100 µM; in the experiment on SR leukemia, more than 100 µM; with A498 renal, more than 100 µM; in the experiment with HOP-62 NSCLC it was more than 10 µM. Also, the total growth inhibition concentration (TGI) in the experiment with HOP-92 NSCLC and in the experiment on SK-MEL-2 melanoma was more than 100 µM in each case.

`C=CC1CC12C(=O)C1OC2(C)C2C(=O)c3c(O)ccc(O)c3C(=O)C12` (stereo not drawn): the GI50 with HCC-2998 colon is 13.8 µM; with SF-295 CNS, 1.39 µM; with KM12 colon it was 5.83 µM; in the experiment on A498 renal, 3.89 µM; in the experiment with PC-3 prostate, 4.72 µM; in the experiment on HOP-62 NSCLC, 9.66 µM. In addition, the GI50 is 2.69 µM in the experiment with HOP-92 NSCLC, 14.5 µM with SK-MEL-2 melanoma and 2.33 µM with MDA-MB-231 breast. Moreover, the TGI turned out to be 30.1 µM in the experiment on HCC-2998 colon; 5.55 µM in the experiment with SF-295 CNS; 17.3 µM with KM12 colon; 13.4 µM with A498 renal; 15.3 µM in the experiment on PC-3 prostate; 25 µM in the experiment on HOP-62 NSCLC. The TGI was 6.59 µM in the experiment on HOP-92 NSCLC, more than 100 µM with SK-MEL-2 melanoma and 7.38 µM in the experiment with MDA-MB-231 breast.

As to `CCCCOC(=O)NC(=O)c1cn(CCSCCOC(=O)NCCCCCCNC(=O)OCCSCCn2cc(C(=O)NC(=O)OCCCC)c(=O)[nH]c2=O)c(=O)[nH]c1=O`, the TGI in the experiment with HCC-2998 colon was more than 100 µM; in the experiment on SF-295 CNS, more than 100 µM; with KM12 colon it was more than 100 µM; in the experiment with SR leukemia it was more than 100 µM; with A498 renal, 64.7 µM; with HOP-62 NSCLC, more than 100 µM. The figures for the TGI in the experiment with HOP-92 NSCLC and in the experiment on SK-MEL-2 melanoma were 71.8 µM and more than 100 µM, respectively.

For the compound `COc1cc2c(cc1O)CC13CCC(=O)N1CCc1cc(OC)c(O)c-2c13` (stereo not drawn), the TGI in the experiment on HCC-2998 colon, with SF-295 CNS, with SR leukemia, with A498 renal, with HOP-62 NSCLC and with HOP-92 NSCLC was more than 68.1 µM in each case.

For the compound `CO[C@@H]1CC(=O)C2(CC(=O)O[C@@H]2/C=C(\C)CCC=C(C)C)C[C@@H]1O` (stereo partly drawn), the GI50 in the experiment on HCC-2998 colon is 0.214 µM; with SF-295 CNS, 1.43 µM; in the experiment with KM12 colon, 1.03 µM; in the experiment with A498 renal it was 1.66 µM; in the experiment with PC-3 prostate, 0.378 µM; with HOP-62 NSCLC, 1.06 µM. For the same compound, the GI50 in the experiment with HOP-92 NSCLC is 0.84 µM; in the experiment on SK-MEL-2 melanoma, 1.39 µM; in the experiment on MDA-MB-231 breast it was 0.642 µM. Besides, the TGI in the experiment with HCC-2998 colon is 0.814 µM; in the experiment with SF-295 CNS, more than 11.7 µM; in the experiment with KM12 colon, 3.97 µM; in the experiment on A498 renal, 4.63 µM; in the experiment on PC-3 prostate, 1.44 µM; with HOP-62 NSCLC, 2.64 µM. Moreover, the TGI with HOP-92 NSCLC was 2.97 µM; in the experiment on SK-MEL-2 melanoma it was 4.88 µM; in the experiment with MDA-MB-231 breast, 1.66 µM.

Turning to `CC(=O)CCCCO`, the TGI in the experiment with SF-295 CNS, in the experiment with KM12 colon, in the experiment on A498 renal, with HOP-62 NSCLC, in the experiment on HOP-92 NSCLC and with SK-MEL-2 melanoma was more than 100 µM throughout.

In the case of `COc1ccccc1NC(=O)C1=C(C)NC(C)=C(C(=O)Nc2ccccc2OC)C1c1ccc(C)cc1`, the TGI with HCC-2998 colon is more than 100 µM; in the experiment on SF-295 CNS, more than 100 µM; in the experiment on KM12 colon, more than 100 µM; in the experiment on A498 renal, 82.7 µM; with HOP-62 NSCLC it was more than 100 µM; with HOP-92 NSCLC, more than 100 µM. Also, the TGI in the experiment with SK-MEL-2 melanoma is more than 100 µM.

In the case of `Fc1ccc(C2SCc3nc4ccccc4n32)cc1` (stereo not drawn), the TGI with SF-295 CNS is more than 100 µM; with KM12 colon, more than 100 µM; in the experiment with SR leukemia, 96.6 µM; in the experiment with HOP-62 NSCLC, more than 100 µM; in the experiment on HOP-92 NSCLC, 62 µM; in the experiment on SK-MEL-2 melanoma, more than 100 µM.

In the case of `O=C(CC(=O)N1N=C(N2c3ccccc3Sc3ccccc32)CC1c1ccccc1)Nc1ccc(Cl)cc1` (stereo not drawn), the TGI in the experiment with HCC-2998 colon, in the experiment with SF-295 CNS, in the experiment on KM12 colon, in the experiment on A498 renal, in the experiment with HOP-62 NSCLC and in the experiment on HOP-92 NSCLC was more than 100 µM in each case.

For the compound `NC(=O)C(c1ccccc1)N1CCOCC1` (stereo not drawn), the TGI with SF-295 CNS, in the experiment with KM12 colon, with SR leukemia, in the experiment with A498 renal, in the experiment with HOP-62 NSCLC and in the experiment with HOP-92 NSCLC was more than 100 µM throughout. The TGI in the experiment on SK-MEL-2 melanoma was more than 100 µM.

Regarding `CC(=O)OC1(C)C(=O)OC1(C)C(C)=O` (stereo not drawn), the concentration for total growth inhibition (TGI) in the experiment on HCC-2998 colon, in the experiment on SF-295 CNS, in the experiment with KM12 colon, in the experiment with A498 renal, in the experiment on HOP-92 NSCLC and in the experiment with SK-MEL-2 melanoma was more than 100 µM in each case.

For the compound `c1ccc2c(c1)[nH]c1cnc3c4cccnc4[nH]c3c12`, the TGI was 34.5 µM in the experiment with HCC-2998 colon; 49.8 µM in the experiment on SF-295 CNS; 48.7 µM in the experiment on SR leukemia; more than 100 µM in the experiment on A498 renal; 96.1 µM in the experiment with HOP-62 NSCLC; 60.7 µM in the experiment on HOP-92 NSCLC.

Turning to `O=C1CN(C(=O)c2ccccc2)Cc2[nH]c3ccccc3c21`, the TGI with HCC-2998 colon, with SF-295 CNS, in the experiment on KM12 colon, in the experiment with SR leukemia, in the experiment with HOP-62 NSCLC and with HOP-92 NSCLC was more than 100 µM each time. For the same compound, the concentration for total growth inhibition (TGI) with SK-MEL-2 melanoma was more than 100 µM.

In the case of `O=C(OCC1CO1)c1cccs1` (stereo not drawn), the TGI in the experiment with HCC-2998 colon, in the experiment with SF-295 CNS, with KM12 colon, in the experiment on HOP-62 NSCLC, with HOP-92 NSCLC and with SK-MEL-2 melanoma was more than 100 µM in each case.

With `C#Cc1c(C(N)=O)ncn1C1OC(COP(=O)(OCc2ccc([N+](=O)[O-])o2)N(C)CCCCCl)C(O)C1O` (stereo not drawn), the GI50 is 16.2 µM in the experiment on HCC-2998 colon; 31.2 µM in the experiment with SF-295 CNS; 42.7 µM with KM12 colon; 39.6 µM with A498 renal; 53.5 µM in the experiment with PC-3 prostate; 49.3 µM with HOP-62 NSCLC. For the same compound, the GI50 in the experiment on HOP-92 NSCLC is 51.2 µM; in the experiment on SK-MEL-2 melanoma it was 89.9 µM; in the experiment on MDA-MB-231 breast, more than 100 µM. Further, the TGI in the experiment on HCC-2998 colon, in the experiment on SF-295 CNS, in the experiment with KM12 colon, in the experiment with A498 renal, in the experiment on PC-3 prostate and in the experiment with HOP-62 NSCLC was more than 100 µM in each case. Further, the TGI in the experiment on HOP-92 NSCLC, with SK-MEL-2 melanoma and with MDA-MB-231 breast was more than 100 µM each time.

Broadly, the TGI is the concentration giving total growth inhibition. The low end stands for greater sensitivity of the cells, the high end for lower sensitivity of the cells. The term GI50 denotes the concentration giving 50% growth inhibition.

Values taken from PubChem BioAssay (NCI).
